Reference: PMC7759686, “Pharmacokinetics and Immunological Effects of Romidepsin in Rhesus Macaques” (Frontiers in Immunology, 2020)

How the values were obtained:
[1] = test system: circulating lymphocytes, T cells, B cells and neutrophils; assay: Immune cell counts in blood (CBC, TruCount flow cytometry); type: in vivo, rhesus macaques (Macaca mulatta); conditions: for CD8+ T cells in blood: baseline 1,047; for CD4+ T cells in blood: baseline 2,518; for total circulating lymphocytes: baseline 5,050, 3 RMs, 7 mg/m^2
Procedure: Figure 1 illustrates the sampling schedule. […] Intestinal biopsies were taken at 13 days prior to infusion; intestinal resections were taken at 30 days before infusion and 1 day postinfusion; LNs were collected at 30 and 13 days prior to infusion, 6 h postinfusion, and 1 and 7 days postinfusion. The samples collected during the first round of RMD treatment were used for immune population dynamics and functionality.
Complete blood counts (CBCs) and serum chemistries were monitored in the collected samples from both the RMD-treated RMs and control RMs by either the Marshfield Laboratories (Cleveland, OH), IDEXX Reference Laboratories (IDEXX Laboratories, Inc, Westbrook, ME) or in house, using a ProCyte Hematology Analyzer (IDEXX Laboratories, Inc).
Whole blood was stained to monitor the impact of RMD on the immune cell populations. TruCount was used to determine absolute counts of CD3^+, CD4^+, CD8^+ T cells and CD20^+ B cells as described ([51]–[53]). Fifty microliters of whole blood were stained with antibodies against CD3-V450, CD4-APC, CD20-APC-H7, and CD45-PerCP in TruCount tubes (BD Biosciences, Franklin Lakes, NJ, USA) with a set number of fluorescent beads as internal standards. CD8^+ T cell counts were assessed through the ratio of CD8^+ to CD3^+ T cells. Whole blood was also stained with combinations of the following fluorescently labeled antibodies: CD3-V450 (SP34-2), CD4-APC (L200), CD8-PE-CF594 (RPA-T8), CD14-PE-Cy7 (M5E2), CD38-FITC (AT-1) (Stemcell, Vancouver, BC, CA), CD20-APC-H7 (2H7), CD69-APC-Cy7 (FN50), CD95-FITC (DX2), CCR5-PE (3A9), Annexin V-FITC, HLA-DR-PE-Cy7 (L243), NKG2A-PE (Z199) (Beckman Coulter, Pasadena, CA), Strepavidin-Alexa Fluor 750 (Life Technologies, Carlsbad, CA), Biotin-CCR7 (eBioscience, San Diego, CA), LIVE/DEAD Fixable Blue Dead Cell Stain Kit (Thermo Fisher Scientific); all antibodies were from BD Biosciences unless otherwise noted. For Ki-67-PE (B56) intracellular staining, cells were fixed and permeabilized prior to Ki-67 staining. Data were acquired with a LSR-II flow cytometer (BD Biosciences) or Fortessa flow cytometer (BD Biosciences) and analyzed with FlowJo software 10.7.0 (Treestar, Ashland, OR), as described ([51], [54]).

[2] = test system: CD4+ and CD8+ T cells of PBMCs; assay: In vitro RMD impact on homing markers of PBMCs; type: cell-based, rhesus macaques; conditions: for CCR5 expression on CD8+ T cells: untreated 7%; for CCR4 expression on CD8+ T cells: baseline 6%, untreated 29%; for α4β7 expression on CD8+ T cells: baseline 7%; for CCR9 expression on CD4+ T cells: baseline 2%; for CCR9 expression on CD4+ T cells / CCR9 expression on CD8+ T cells: untreated 3%
Procedure: To assess the RMD impact on the expression of cellular and homing markers, fresh PBMCs collected from 3 SIV-naïve RMs were subjected to either no RMD treatment or escalating doses of RMD (2, 10, and 20 ng/ml). The PBMCs were incubated with RMD in RPMI1640 supplemented with 1% Penicillin/Streptomycin, 1% HEPES buffer, 1% L-glutamine, and 5% heat-inactivated bovine calf serum for 0, 1, 2, or 5 days. PBMCs were then stained with CD3-V500, CD4-Alexa Flour 700 (L200), CD8-PE-CF594, CCR4-PE-Cy7 (1G1), CCR5-APC (3AP), CCR7-PE (3D12), CCR9-FITC (112509) (R&D Systems, Minneapolis, MN, USA), β7-PE-Cy5 (FIB504), and LIVE/DEAD Fixable Blue Dead Cell Stain Kit (Thermo Fisher Scientific); all antibodies were from BD Biosciences unless otherwise noted. Stained PBMCs were acquired on a LSR-II and data were analyzed with FlowJo software (TreeStar).

C/C=C1\NC(=O)[C@H]2CSSCC/C=C/[C@H](CC(=O)N[C@H](C(C)C)C(=O)N2)OC(=O)[C@H](C(C)C)NC1=O [RMD, romidepsin]
CD8+ T cells in blood ([1]; 12 h postinfusion, p < 0.05): 204 cells/μl
CD4+ T cells in blood ([1]; 12 h postinfusion, p < 0.05): 402 cells/μl
neutrophils in blood ([1]; 12 h postinfusion, baseline 3,273, normal 6.2 ± 2.4 × 10^3, not significant): 14,287 cells/μl
total circulating lymphocytes ([1]; 12 h postinfusion, p < 0.05): 1,463 cells/μl
CD8+ T cells in blood ([1]; 1 day postinfusion, p < 0.05): 178 cells/μl
CD4+ T cells in blood ([1]; 1 day postinfusion, p < 0.05): 496 cells/µl
neutrophils in blood ([1]; 1 day postinfusion, baseline 3,273): 9,123 cell/µl
CD8+ T cells in blood ([1]; 2 days postinfusion, p < 0.05): 204 cells/μl
CD4+ T cells in blood ([1]; 2 days postinfusion, p < 0.05): 366 cells/μl
total circulating lymphocytes ([1]; 2 days postinfusion, p < 0.05): 1,753 cells/μl
CD4+ T cells in blood ([1]; 5 days postinfusion (recovery)): 1,305 cells/μl
CD8+ T cells in blood ([1]; 5 days postinfusion): 634 cells/μl
neutrophils in blood ([1]; 5 days postinfusion, baseline 3,273): 2,427 cells/μl
CD8+ T cells in blood ([1]; 7 days postinfusion (near full recovery)): 741 cells/μl
B cells (CD3−CD20+) in blood ([1]; RMD treated RMs, no change in saline control group): declined
CCR5 expression on CD4+ T cells ([2]; 2 ng/ml RMD, day 5, baseline 3%, untreated 2%, p > 0.05): 1%
CCR5 expression on CD8+ T cells ([2]; 2 ng/ml RMD, day 5, baseline 4%, p > 0.05): 59%
CCR4 expression on CD8+ T cells ([2]; 2 ng/ml RMD, day 5, p > 0.05): 73%
α4β7 expression on CD8+ T cells ([2]; 2 ng/ml RMD, day 5, p > 0.05): 59%
CCR7 expression on CD8+ T cells ([2]; 10 ng/ml RMD, day 1 (peak), baseline 3%): 6%
α4β7 expression on CD4+ T cells ([2]; 10 ng/ml RMD, day 1, baseline 8%): 9%
α4β7 expression on CD4+ T cells ([2]; 10 ng/ml RMD, day 2, baseline 8%): 16%
CCR9 expression on CD4+ T cells ([2]; 10 ng/ml RMD, day 5 (peak), p > 0.05): 14%
CCR5 expression on CD4+ T cells ([2]; 10 ng/ml RMD, day 5, baseline 3%, untreated 2%, p > 0.05): < 1%
CCR9 expression on CD8+ T cells ([2]; 10 ng/ml RMD, day 5, baseline 4%, p > 0.05): 8%
CCR5 expression on CD8+ T cells ([2]; 10 ng/ml RMD, day 5, baseline 4%, p < 0.05): 93%
CCR4 expression on CD8+ T cells ([2]; 10 ng/ml RMD, day 5, p < 0.05): 93%
α4β7 expression on CD8+ T cells ([2]; 10 ng/ml RMD, day 5, p < 0.05): 95%
α4β7 expression on CD4+ T cells ([2]; 10 ng/ml RMD, day 5, untreated 7.5%): 2%
CCR7 expression on CD8+ T cells ([2]; 20 ng/ml RMD, day 1 (peak), baseline 3%): 6.2%
α4β7 expression on CD4+ T cells ([2]; 20 ng/ml RMD, day 1, baseline 8%): 10%
α4β7 expression on CD4+ T cells ([2]; 20 ng/ml RMD, day 2, baseline 8%): 15%
CCR9 expression on CD4+ T cells ([2]; 20 ng/ml RMD, day 5 (peak), p > 0.05): 13%
CCR7 expression on CD4+ T cells ([2]; 20 ng/ml RMD, day 5 (peak), baseline 4%, untreated 2%, p > 0.05): 9%
CCR5 expression on CD4+ T cells ([2]; 20 ng/ml RMD, day 5, baseline 3%, untreated 2%, p > 0.05): < 1%
CCR9 expression on CD8+ T cells ([2]; 20 ng/ml RMD, day 5, baseline 4%, p > 0.05): 10%
CCR5 expression on CD8+ T cells ([2]; 20 ng/ml RMD, day 5, baseline 4%, p < 0.05): 90%
CCR4 expression on CD8+ T cells ([2]; 20 ng/ml RMD, day 5, p < 0.05): 90%
α4β7 expression on CD8+ T cells ([2]; 20 ng/ml RMD, day 5, p < 0.05): 91%
CCR7 expression on CD8+ T cells ([2]; 20 ng/ml RMD, day 5, untreated 2%): 5%
α4β7 expression on CD4+ T cells ([2]; 20 ng/ml RMD, day 5, untreated 7.5%): 3%
CCR4 expression on CD4+ T cells ([2]; 2, 10, 20 ng/ml RMD, up to day 5): mostly unchanged
